The text below walks through data of patent EP0994104A1, “ARYL (SULFIDE, SULFOXIDE AND SULFONE) DERIVATIVES AND DRUGS CONTAINING THE SAME AS THE ACTIVE INGREDIENT” (ONO PHARMACEUTICAL CO., LTD., priority 1996, dated 1997).

This assay concerns the target T1, gelatinase A (Homo sapiens, UniProt P08253).
T1 construct: endogenous in cells; host or cells: human normal skin dermal fibroblasts (HNDF)
T1 sequence (P08253 110-660): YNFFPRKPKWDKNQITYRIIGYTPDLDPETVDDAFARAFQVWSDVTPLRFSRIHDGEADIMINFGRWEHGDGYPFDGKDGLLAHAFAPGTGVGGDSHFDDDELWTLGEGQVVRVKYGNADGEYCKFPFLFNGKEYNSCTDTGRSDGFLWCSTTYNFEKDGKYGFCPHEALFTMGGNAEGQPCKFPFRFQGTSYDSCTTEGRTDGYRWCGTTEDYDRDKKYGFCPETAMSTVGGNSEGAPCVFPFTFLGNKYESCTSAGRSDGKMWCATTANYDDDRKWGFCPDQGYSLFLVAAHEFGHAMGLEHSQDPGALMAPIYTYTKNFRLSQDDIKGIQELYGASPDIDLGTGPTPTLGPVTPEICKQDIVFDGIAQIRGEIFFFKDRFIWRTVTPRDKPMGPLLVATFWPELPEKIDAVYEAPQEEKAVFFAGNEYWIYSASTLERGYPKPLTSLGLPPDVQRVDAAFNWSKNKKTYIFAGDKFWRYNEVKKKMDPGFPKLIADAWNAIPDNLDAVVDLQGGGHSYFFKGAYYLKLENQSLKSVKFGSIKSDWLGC
As to the kind of experiment: Inhibitory activity against gelatinase A (FITC-gelatin degradation, fluorescence). The following applies: progelatinase A purified from human normal skin dermal fibroblasts (HNDF), activated with APMA; 0.05 % FITC-gelatin, 2 hours at 37°C. The format is biochemical. The procedure:
(1) Inhibitory activity against gelatinase A.
The progelatinase A (7 µl; in assay buffer (90 µl) was purified from human normal skin dermal fibroblasts (HNDF). It was activated by the addition of 10 mM APMA (10 µl) for 1 hour at 37°C. The solution of activated gelatinase A (1 U/tube, 98 µl) was mixed with the solution of various concentrations of the test compound or the solution in which the test compound is not added, (2 µl), and 0.05 % FITC-gelatin (100 µl) and incubated for 2 hours at 37°C. The enzymatic reaction was terminated by the addition of 2 M Tris-HCl (pH 9.5) containing 94.7% ethanol (750 µl). The mixture was stirred and then allowed to stand for 30 minutes at 0°C. The mixture was centrifuged for 30 minutes at 900 x g. Inhibitory activity against gelatinase was determined by measuring the fluorescent intensity in supernatant (Ex = 495 nm, and Em = 520 nm).
In the above experimental method, APMA is p-aminophenylmercuric acetate and FITC is fluorescein isothiocyanate.

`O=C(O)CCS(=O)(=O)c1ccc(NC(=O)c2ccccc2)cc1` [Example 8(2), 3-[4-(benzoylamino)phenylsulfonyl]propionic acid] yielded a half-inhibitory concentration (IC50) of 540 nM.

On to `O=C(O)CCS(=O)(=O)c1ccc(C#Cc2ccccc2)cc1` [Example 8(7), 3-[4-(phenylethynyl)phenylsulfonyl]propionic acid], for which the half-maximal inhibitory concentration (IC50) was 400 nM.

`COc1ccc(S(=O)(=O)CC(NC(=O)C(NC(=O)OC(C)(C)C)c2ccccc2)C(=O)NO)cc1` (stereo not drawn) [Example 19(1), N-hydroxy-2-[N-[N-(t-butoxycarbonyl)phenylglycyl]amino]-3-(4-methoxyphenylsulfonyl)propionamide] registered an IC50 of 11 nM.

`CC(CS(=O)(=O)c1ccc(-c2cc3ccccc3o2)cc1)C(=O)NO` (stereo not drawn) [Example 28(1), N-hydroxy-2-methyl-3-[4-(2-benzofuranyl)phenylsulfonyl]propionamide] displayed an IC50 of 1.4 nM.

`Cc1ccc(C#Cc2ccc(S(=O)(=O)CC(C)C(=O)NO)cc2)cc1` (stereo not drawn) [Example 28(3), N-hydroxy-2-methyl-3-[4-(4-tolylethynyl)phenylsulfonyl]propionamide] had a concentration for half-maximal inhibition (IC50) of 2.9 nM.

For `CCCCCC#Cc1ccc(S(=O)(=O)CC(C)C(=O)NO)cc1` (stereo not drawn) [Example 28, N-hydroxy-2-methyl-3-[4-(1-heptynyl)phenylsulfonyl]propionamide], the 50% inhibitory concentration (IC50) came out at 13 nM.

As a reminder, the IC50 is the midpoint of a concentration-inhibition curve. A lower IC50 goes with greater potency.
